From ChEMBL document CHEMBL3044936, “Antifeedant properties of natural products from Parthenium argentatum, P. argentatumP. tomentosum (Asteraceae) and Castela emoryi (Simaroubeaceae) against Reticulitermes flavipes” (1999)
Converted amounts (≈) assume the structure as drawn.

Columns and labels:
Assay type in all cases: functional
Reticulitermes flavipes [1] = assay: Antitermitic activity against Reticulitermes flavipes assessed as mortality at 5.5 ug/disk after 10 days by no-choice paper disk assay; details: 240 h
Reticulitermes flavipes [2] = assay: Antifeedant activity against Reticulitermes flavipes assessed as feeding inhibition at 2.7 ug/disk after 3 days by choice paper disk assay; details: 72 h
Reticulitermes flavipes [3] = assay: Antifeedant activity against Reticulitermes flavipes assessed as feeding inhibition after 3 days by choice paper disk assay; details: 72 h, read-out: ED50 (the source's name)
Reticulitermes flavipes [4] = assay: Antifeedant activity against Reticulitermes flavipes assessed as compound consumption at 5.5 ug/disk after 10 days by no-choice paper disk assay
Reticulitermes flavipes [5] = assay: Ratio of mortality to compound consumption in Reticulitermes flavipes at 5.5 ug/disk after 10 days

SMILES | mortality at 5.5 µg/disc (Reticulitermes flavipes [1]) [%] | inhibition at 2.7 µg/disc (Reticulitermes flavipes [2]) [%] | EC50 (Reticulitermes flavipes [3]) [µg/mL] | Activity (Reticulitermes flavipes [4]) [%] | Ratio (Reticulitermes flavipes [5])
COC1=C[C@]2(C)CCC(C(C)C)=CC2=C(C)C1=O [ARGENTONE] | 66 | 70.5 | 85.7 (≈ 348 µM) | 33 | 2
COc1ccc(C(=O)O[C@H]2C/C(C)=C/CC/C(C)=C/[C@H]3[C@@H]2C3(C)C)cc1 [GUAYULIN B] | 0 | 31.9 | > 1000 | 72 | 0
CC(=O)O[C@H]1C(=O)O[C@@H]2C[C@H]3C(C)=CC(=O)[C@@H](O)[C@]3(C)[C@H]3[C@]4(O)OC[C@]32[C@@H]1[C@@H](C)[C@H]4O [HOLACANTHONE] | 24 | 39.4 | > 1000 | 34 | 0.7
CC(C)(O)[C@@H]1CC[C@](C)([C@H]2[C@@H](O)C[C@@]3(C)C4=C(CC[C@]23C)[C@@]2(C)CCC(=O)C(C)(C)[C@@H]2CC4)O1 [INCANILIN] | 0 | 30.8 | > 1000 | 16 | 0
C/C1=C\[C@H]2[C@@H]([C@@H](O)C/C(C)=C/CC1)C2(C)C [PARTHENIOL] | 71 | 46 | 490 (≈ 2230 µM) | 65 | 1.1
